Measured values published in publication PMC4620497 (Scientific Reports, 2015).
Where two headings read alike, the source gives them in different places.

Key:
[1] = tested on: Wnt/β-catenin signaling in STF3a cells; test: STF3a SuperTopFlash luciferase reporter assay; assay type: cell-based; conditions: 24 h
Procedure: The cell line STF3a, which stably expresses both the STF (SuperTopFlash) luciferase reporter promoter and the wnt3a gene was used to determine whether SKLB-677 can block the Wnt/β-catenin signaling. […]. […] Here we can conclude that the SKLB-677-mediated blockade of Wnt/β-catenin signaling is not due to FLT3 inhibition. We then examined whether the first-generation FLT3 inhibitors could inhibit Wnt/β-catenin signaling. […].
STF3a cells (8 × 10^3) were seeded overnight in 96-well plates (triplicate wells per treatment). Cells were treated with 0.1% DMSO or tested compounds for 24 h with Luciferase assay system (Promega) performed according to the manufacturer’s instructions. […] The reporter activity was expressed as relative values compared with vehicle control.
Figure 3 Effects of SKLB-677 on Wnt/β-catenin signaling. […]. All data points are means of triplicates ± SD. ns, not statistically significant, **P < 0.01, ***P < 0.005 among groups. […]. (c) STF3a cells were incubated with various concentrations of SKLB-677 for 24 h.The cell lysates were detected using the antibodies against S33/37/T41 Non-phospho β-catenin (active β-catenin), and total β-catenin (β-catenin). (d) STF3a cells were treated with indicated concentrations of SKLB-677 for 24 h. MYC, CCND1, and NKD1 mRNA expressions were determined through real-time qPCR analysis. All samples were normalized to the level of GAPDH (mean ± SEM from triplicate reactions). *P < 0.05, **P < 0.01, ***P < 0.005. (e) Representative images of zebrafish embryos at 24hpf with tail formation after incubation with various concentrations of SKLB-677 for 20 h. (f) Zebrafish embryos were injected with wnt8.1 mRNA (30 pg) or vehicle mRNA (phaenotype control). […]. Results shown in the histogram are expressed as the percentage of embryos in each phenotypic class after the treatment (n > 70). Class 1: wild-type, class 2: posteriorized, resulting in the loss of the eyes, and class 3: more severely posteriorized, as evidenced by head truncation.

MV4-11 = test: MTT cell viability assay; conditions: Homo sapiens, MV4-11, 72 h
HL-60 = test: MTT cell viability assay; conditions: Homo sapiens, HL-60, 72 h
Jurkat = test: MTT cell viability assay; conditions: Homo sapiens, 72 h
U266 = test: MTT cell viability assay; conditions: Homo sapiens, U-266, 72 h
Raji = test: MTT cell viability assay; conditions: Homo sapiens, 72 h
Karpas-299 = test: MTT cell viability assay; conditions: Homo sapiens, KARPAS-299, 72 h
A549 = test: MTT cell viability assay; conditions: Homo sapiens, A549, 72 h
SMMC7721 = test: MTT cell viability assay; conditions: Homo sapiens, SMMC-7721, 72 h
BEL7402 = test: MTT cell viability assay; conditions: Homo sapiens, Bel-7402, 72 h
HeLa = test: MTT cell viability assay; conditions: Homo sapiens, 72 h
MCF-7 = test: MTT cell viability assay; conditions: Homo sapiens, MCF7, 72 h
AAK1 = biological target: T1, AAK1 (Homo sapiens, UniProt Q2M2I8); test: KINOMEscan panel screen; assay type: binding; conditions: read-out: Percent Control(%)
T1 construct: purchased DiscoveRx KINOMEscan (Ambit Biosciences)

ABL2 = biological target: T2, ABL2 (Homo sapiens, UniProt P42684); test: KINOMEscan panel screen; assay type: binding; conditions: read-out: Percent Control(%)
T2 construct: purchased DiscoveRx KINOMEscan (Ambit Biosciences)

CAMK2B = biological target: T3, CAMK2B (Homo sapiens, UniProt Q13554); test: KINOMEscan panel screen; assay type: binding; conditions: read-out: Percent Control(%)
T3 construct: purchased DiscoveRx KINOMEscan (Ambit Biosciences)

CAMKK2 = biological target: T4, CAMKK2 (Homo sapiens, UniProt Q96RR4); test: KINOMEscan panel screen; assay type: binding; conditions: read-out: Percent Control(%)
T4 construct: purchased DiscoveRx KINOMEscan (Ambit Biosciences)

DYRK1A = biological target: T5, DYRK1A (Homo sapiens, UniProt Q13627); test: KINOMEscan panel screen; assay type: binding; conditions: read-out: Percent Control(%)
T5 construct: purchased DiscoveRx KINOMEscan (Ambit Biosciences)

EGFR(L861Q) = biological target: T6, EGFR(L861Q) (Homo sapiens, UniProt P00533, L861Q); test: KINOMEscan panel screen; assay type: binding; conditions: read-out: Percent Control(%)
T6 construct: purchased DiscoveRx KINOMEscan (Ambit Biosciences)

EGFR(S752-I759del) = biological target: T7, EGFR(S752-I759del) (Homo sapiens, UniProt P00533, DEL752-759); test: KINOMEscan panel screen; assay type: binding; conditions: read-out: Percent Control(%)
T7 construct: purchased DiscoveRx KINOMEscan (Ambit Biosciences)

EPHB6 = biological target: T8, EPHB6 (Homo sapiens, UniProt O15197); test: KINOMEscan panel screen; assay type: binding; conditions: read-out: Percent Control(%)
T8 construct: purchased DiscoveRx KINOMEscan (Ambit Biosciences)

FYN = biological target: T9, FYN (Homo sapiens, UniProt P06241); test: KINOMEscan panel screen; assay type: binding; conditions: read-out: Percent Control(%)
T9 construct: purchased DiscoveRx KINOMEscan (Ambit Biosciences)

JNK3 = biological target: T10, JNK3 (Homo sapiens, UniProt P53779); test: KINOMEscan panel screen; assay type: binding; conditions: read-out: Percent Control(%)
T10 construct: purchased DiscoveRx KINOMEscan (Ambit Biosciences)

LTK = biological target: T11, LTK (Homo sapiens, UniProt P29376); test: KINOMEscan panel screen; assay type: binding; conditions: read-out: Percent Control(%)
T11 construct: purchased DiscoveRx KINOMEscan (Ambit Biosciences)

MARK1 = biological target: T12, MARK1 (Homo sapiens, UniProt Q9P0L2); test: KINOMEscan panel screen; assay type: binding; conditions: read-out: Percent Control(%)
T12 construct: purchased DiscoveRx KINOMEscan (Ambit Biosciences)

MARK4 = biological target: T13, MARK4 (Homo sapiens, UniProt Q96L34); test: KINOMEscan panel screen; assay type: binding; conditions: read-out: Percent Control(%)
T13 construct: purchased DiscoveRx KINOMEscan (Ambit Biosciences)

NEK3 = biological target: T14, NEK3 (Homo sapiens, UniProt P51956); test: KINOMEscan panel screen; assay type: binding; conditions: read-out: Percent Control(%)
T14 construct: purchased DiscoveRx KINOMEscan (Ambit Biosciences)

NEK9 = biological target: T15, NEK9 (Homo sapiens, UniProt Q8TD19); test: KINOMEscan panel screen; assay type: binding; conditions: read-out: Percent Control(%)
T15 construct: purchased DiscoveRx KINOMEscan (Ambit Biosciences)

PDPK1 = biological target: T16, PDPK1 (Homo sapiens, UniProt O15530); test: KINOMEscan panel screen; assay type: binding; conditions: read-out: Percent Control(%)
T16 construct: purchased DiscoveRx KINOMEscan (Ambit Biosciences)

PKN1 = biological target: T17, PKN1 (Homo sapiens, UniProt Q16512); test: KINOMEscan panel screen; assay type: binding; conditions: read-out: Percent Control(%)
T17 construct: purchased DiscoveRx KINOMEscan (Ambit Biosciences)

PLK1 = biological target: T18, PLK1 (Homo sapiens, UniProt P53350); test: KINOMEscan panel screen; assay type: binding; conditions: read-out: Percent Control(%)
T18 construct: purchased DiscoveRx KINOMEscan (Ambit Biosciences)

SGK2 = biological target: T19, SGK2 (Homo sapiens, UniProt Q9HBY8); test: KINOMEscan panel screen; assay type: binding; conditions: read-out: Percent Control(%)
T19 construct: purchased DiscoveRx KINOMEscan (Ambit Biosciences)
T19 sequence (Q9HBY8 whole entry): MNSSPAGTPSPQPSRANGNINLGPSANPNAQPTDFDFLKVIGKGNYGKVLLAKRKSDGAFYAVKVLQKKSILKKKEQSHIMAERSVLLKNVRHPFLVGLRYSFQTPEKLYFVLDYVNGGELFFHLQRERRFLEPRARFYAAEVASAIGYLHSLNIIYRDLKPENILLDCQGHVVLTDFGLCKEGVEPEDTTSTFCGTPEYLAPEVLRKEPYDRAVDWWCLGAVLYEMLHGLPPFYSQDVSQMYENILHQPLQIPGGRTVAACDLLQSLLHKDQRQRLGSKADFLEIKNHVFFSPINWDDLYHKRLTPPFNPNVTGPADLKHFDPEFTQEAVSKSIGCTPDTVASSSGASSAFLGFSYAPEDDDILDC

T9 sequence (P06241 whole entry): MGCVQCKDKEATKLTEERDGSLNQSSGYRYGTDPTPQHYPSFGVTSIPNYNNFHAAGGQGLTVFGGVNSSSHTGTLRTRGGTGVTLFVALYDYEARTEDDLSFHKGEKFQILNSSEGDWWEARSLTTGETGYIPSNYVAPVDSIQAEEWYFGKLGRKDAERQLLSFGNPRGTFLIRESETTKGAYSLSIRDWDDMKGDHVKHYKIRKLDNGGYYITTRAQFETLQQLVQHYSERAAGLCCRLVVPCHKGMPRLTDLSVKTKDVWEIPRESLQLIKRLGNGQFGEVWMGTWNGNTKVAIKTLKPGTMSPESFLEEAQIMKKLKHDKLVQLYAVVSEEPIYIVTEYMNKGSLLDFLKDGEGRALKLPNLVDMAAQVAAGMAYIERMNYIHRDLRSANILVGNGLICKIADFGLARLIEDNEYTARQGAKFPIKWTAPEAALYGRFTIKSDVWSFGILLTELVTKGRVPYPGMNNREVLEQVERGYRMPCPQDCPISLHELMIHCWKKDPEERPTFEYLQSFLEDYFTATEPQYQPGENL
T3 sequence (Q13554 whole entry): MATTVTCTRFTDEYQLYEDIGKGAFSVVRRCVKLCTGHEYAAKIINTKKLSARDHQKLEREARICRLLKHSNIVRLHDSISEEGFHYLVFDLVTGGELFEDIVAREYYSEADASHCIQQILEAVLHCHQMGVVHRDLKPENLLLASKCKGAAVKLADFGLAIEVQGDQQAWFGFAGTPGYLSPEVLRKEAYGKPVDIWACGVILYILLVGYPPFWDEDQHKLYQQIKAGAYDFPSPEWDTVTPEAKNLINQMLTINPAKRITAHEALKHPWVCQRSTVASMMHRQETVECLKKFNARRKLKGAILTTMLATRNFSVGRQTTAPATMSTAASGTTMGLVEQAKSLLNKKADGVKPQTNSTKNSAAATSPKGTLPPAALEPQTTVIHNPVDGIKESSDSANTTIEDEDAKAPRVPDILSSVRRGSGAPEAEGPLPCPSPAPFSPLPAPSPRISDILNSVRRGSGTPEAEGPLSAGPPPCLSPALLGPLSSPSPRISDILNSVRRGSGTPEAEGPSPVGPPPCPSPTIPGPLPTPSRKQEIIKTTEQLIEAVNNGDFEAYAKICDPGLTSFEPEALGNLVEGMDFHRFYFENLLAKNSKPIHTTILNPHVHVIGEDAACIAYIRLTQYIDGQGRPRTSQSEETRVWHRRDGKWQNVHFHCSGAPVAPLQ
T6 sequence (P00533 25-1210 L861Q): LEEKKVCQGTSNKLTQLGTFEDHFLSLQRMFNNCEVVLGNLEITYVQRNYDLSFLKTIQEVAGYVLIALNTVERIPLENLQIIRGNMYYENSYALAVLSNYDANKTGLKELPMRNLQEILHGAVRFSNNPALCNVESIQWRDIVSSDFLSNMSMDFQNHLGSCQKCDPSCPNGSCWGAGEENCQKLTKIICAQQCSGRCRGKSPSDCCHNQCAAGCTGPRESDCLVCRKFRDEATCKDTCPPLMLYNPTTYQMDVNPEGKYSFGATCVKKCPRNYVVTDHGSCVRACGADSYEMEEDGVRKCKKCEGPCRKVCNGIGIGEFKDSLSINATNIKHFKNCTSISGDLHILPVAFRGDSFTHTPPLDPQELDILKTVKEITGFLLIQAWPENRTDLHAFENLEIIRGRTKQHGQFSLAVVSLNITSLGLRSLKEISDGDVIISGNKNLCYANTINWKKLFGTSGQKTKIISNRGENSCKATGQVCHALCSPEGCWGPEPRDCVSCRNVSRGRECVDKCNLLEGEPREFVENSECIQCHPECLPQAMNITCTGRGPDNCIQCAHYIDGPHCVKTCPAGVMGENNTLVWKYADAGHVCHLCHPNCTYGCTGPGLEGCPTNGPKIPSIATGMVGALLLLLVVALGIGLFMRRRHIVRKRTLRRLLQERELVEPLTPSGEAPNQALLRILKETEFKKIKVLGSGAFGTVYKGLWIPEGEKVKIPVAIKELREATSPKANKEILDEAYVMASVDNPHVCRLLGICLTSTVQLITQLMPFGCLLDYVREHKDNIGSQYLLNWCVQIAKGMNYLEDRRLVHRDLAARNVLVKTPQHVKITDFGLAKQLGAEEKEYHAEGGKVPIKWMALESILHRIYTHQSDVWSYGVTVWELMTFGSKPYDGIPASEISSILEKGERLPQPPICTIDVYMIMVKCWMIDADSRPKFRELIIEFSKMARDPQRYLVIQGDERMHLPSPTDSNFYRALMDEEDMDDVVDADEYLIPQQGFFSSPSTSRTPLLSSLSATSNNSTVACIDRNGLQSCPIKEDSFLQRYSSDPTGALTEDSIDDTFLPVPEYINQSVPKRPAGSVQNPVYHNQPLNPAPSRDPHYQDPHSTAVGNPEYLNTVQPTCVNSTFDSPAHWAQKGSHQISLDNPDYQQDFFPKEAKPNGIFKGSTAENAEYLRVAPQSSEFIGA
T13 sequence (Q96L34 whole entry): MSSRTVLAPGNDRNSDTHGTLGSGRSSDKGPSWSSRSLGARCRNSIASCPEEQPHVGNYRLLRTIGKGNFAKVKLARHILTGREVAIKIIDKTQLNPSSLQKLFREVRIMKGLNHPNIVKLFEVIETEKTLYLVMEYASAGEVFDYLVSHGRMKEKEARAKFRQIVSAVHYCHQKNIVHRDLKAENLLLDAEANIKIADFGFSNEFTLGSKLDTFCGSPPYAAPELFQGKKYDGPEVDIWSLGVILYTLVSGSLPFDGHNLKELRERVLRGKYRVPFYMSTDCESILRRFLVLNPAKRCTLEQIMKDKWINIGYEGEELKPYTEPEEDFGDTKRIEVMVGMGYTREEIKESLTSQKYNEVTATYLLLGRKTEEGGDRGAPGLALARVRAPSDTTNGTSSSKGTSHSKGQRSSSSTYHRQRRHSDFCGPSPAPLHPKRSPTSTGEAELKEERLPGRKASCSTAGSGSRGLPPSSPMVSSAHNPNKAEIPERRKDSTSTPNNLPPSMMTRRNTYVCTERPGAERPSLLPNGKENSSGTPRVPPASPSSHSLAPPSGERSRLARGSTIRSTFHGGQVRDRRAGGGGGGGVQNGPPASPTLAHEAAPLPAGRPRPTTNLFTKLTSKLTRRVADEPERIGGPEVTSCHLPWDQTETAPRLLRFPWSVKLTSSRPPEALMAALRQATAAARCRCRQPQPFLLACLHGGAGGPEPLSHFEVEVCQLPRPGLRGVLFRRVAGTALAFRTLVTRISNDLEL
T8 sequence (O15197 32-1021): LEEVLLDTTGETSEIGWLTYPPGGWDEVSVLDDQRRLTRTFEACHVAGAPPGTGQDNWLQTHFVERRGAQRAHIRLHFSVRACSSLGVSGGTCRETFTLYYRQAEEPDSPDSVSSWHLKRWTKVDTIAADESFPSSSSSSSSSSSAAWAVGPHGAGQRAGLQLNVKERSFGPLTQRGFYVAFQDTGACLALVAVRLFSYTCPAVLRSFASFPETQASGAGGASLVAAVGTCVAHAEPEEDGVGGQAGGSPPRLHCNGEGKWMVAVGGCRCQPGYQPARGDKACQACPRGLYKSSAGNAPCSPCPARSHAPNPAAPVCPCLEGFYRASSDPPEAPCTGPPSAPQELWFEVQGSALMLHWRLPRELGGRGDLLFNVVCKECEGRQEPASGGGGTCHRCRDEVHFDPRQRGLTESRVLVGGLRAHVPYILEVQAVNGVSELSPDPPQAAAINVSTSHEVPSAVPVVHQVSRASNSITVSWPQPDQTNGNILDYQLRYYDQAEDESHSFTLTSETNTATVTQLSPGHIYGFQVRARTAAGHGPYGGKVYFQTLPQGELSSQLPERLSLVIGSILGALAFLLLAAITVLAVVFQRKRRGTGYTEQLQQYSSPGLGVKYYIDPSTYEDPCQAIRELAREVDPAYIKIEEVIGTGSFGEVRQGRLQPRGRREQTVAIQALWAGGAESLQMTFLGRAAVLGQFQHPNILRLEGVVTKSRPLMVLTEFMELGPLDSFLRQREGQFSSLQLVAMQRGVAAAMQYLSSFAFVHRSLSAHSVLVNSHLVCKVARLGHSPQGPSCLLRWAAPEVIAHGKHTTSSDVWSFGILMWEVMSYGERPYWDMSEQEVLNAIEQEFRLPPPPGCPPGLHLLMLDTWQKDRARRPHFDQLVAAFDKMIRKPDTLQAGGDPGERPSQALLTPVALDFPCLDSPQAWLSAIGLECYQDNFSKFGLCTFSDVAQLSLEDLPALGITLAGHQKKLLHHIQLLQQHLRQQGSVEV
T14 sequence (P51956 whole entry): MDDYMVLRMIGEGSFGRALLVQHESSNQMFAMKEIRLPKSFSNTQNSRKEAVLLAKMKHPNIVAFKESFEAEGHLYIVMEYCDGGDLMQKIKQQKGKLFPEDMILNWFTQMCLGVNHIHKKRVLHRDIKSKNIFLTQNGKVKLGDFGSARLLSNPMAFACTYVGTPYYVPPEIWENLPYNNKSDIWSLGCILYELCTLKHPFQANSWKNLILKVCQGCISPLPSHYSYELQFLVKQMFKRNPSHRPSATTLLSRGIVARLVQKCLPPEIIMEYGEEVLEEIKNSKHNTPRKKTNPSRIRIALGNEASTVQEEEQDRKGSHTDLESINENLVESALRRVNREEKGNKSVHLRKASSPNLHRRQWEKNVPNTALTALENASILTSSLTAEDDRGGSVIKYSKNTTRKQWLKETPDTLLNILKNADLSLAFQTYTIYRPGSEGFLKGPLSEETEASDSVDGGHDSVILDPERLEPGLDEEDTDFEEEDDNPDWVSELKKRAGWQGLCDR

With O=C(Nc1ccc(Oc2ncnc3[nH]ncc23)cc1)Nc1ccc(Cl)c(C(F)(F)F)c1 [Compound 1, 1-(4-(1H-pyrazolo[3,4-d]pyrimidin-4-yloxy)phenyl)-3-(4-chloro-3-(trifluoromethyl)phenyl)urea] as the compound, how does the “attenuation of Wnt/β-catenin signaling” value ([1]; STF3a cells) read?
The value was “very weak activity”.

And the IC50 (MV4-11)?
The IC50 was 4 nM.

What about the IC50 (HL-60) of the same compound?
The IC50 was greater than 10 µM.

And the IC50 (Jurkat)?
Its IC50 is 8.72 µM.

And the IC50 (U266)?
The IC50 was greater than 10 µM.

And the IC50 (Raji)?
The IC50 was greater than 10 µM.

What about the IC50 (Karpas-299) of the same compound?
Its IC50 is greater than 10 µM.

What about the IC50 (A549) of the same compound?
The IC50 was greater than 10 µM.

What about the IC50 (SMMC7721) of the same compound?
Its IC50 is greater than 10 µM.

What about the IC50 (BEL7402) of the same compound?
Its IC50 is greater than 10 µM.

What about the IC50 (HeLa) of the same compound?
Its IC50 is greater than 10 µM.

And the IC50 (MCF-7)?
Its IC50 is greater than 10 µM.

How did the remaining binding at 10 µM (AAK1) turn out when CC(C)(C)c1cc(NC(=O)Nc2ccc(Oc3ncnc4[nH]ncc34)c(F)c2)no1 [SKLB-677, 1-(4-(1H-pyrazolo[3,4-d]pyrimidin-4-yloxy)-3-fluorophenyl)-3-(5-tert-butylisoxazol-3-yl)urea] was run?
Its remaining binding at 10 µM is 72%.

What about the remaining binding at 10 µM (ABL2) of the same compound?
The remaining binding at 10 µM was 13%.

And the remaining binding at 10 µM (CAMK2B)?
Its remaining binding at 10 µM is 77%.

And the remaining binding at 10 µM (CAMKK2)?
The remaining binding at 10 µM was 30%.

And the remaining binding at 10 µM (DYRK1A)?
Its remaining binding at 10 µM is 80%.

What about the remaining binding at 10 µM (EGFR(L861Q)) of the same compound?
Its remaining binding at 10 µM is 46%.

What about the remaining binding at 10 µM (EGFR(S752-I759del)) of the same compound?
Its remaining binding at 10 µM is 38%.

And the remaining binding at 10 µM (EPHB6)?
The remaining binding at 10 µM was 2%.

And the remaining binding at 10 µM (FYN)?
The remaining binding at 10 µM was 15%.

And the remaining binding at 10 µM (JNK3)?
Its remaining binding at 10 µM is 18%.

What about the remaining binding at 10 µM (LTK) of the same compound?
Its remaining binding at 10 µM is 1.2%.

What about the remaining binding at 10 µM (MARK1) of the same compound?
The remaining binding at 10 µM was 78%.

And the remaining binding at 10 µM (MARK4)?
Its remaining binding at 10 µM is 70%.

What about the remaining binding at 10 µM (NEK3) of the same compound?
Its remaining binding at 10 µM is 41%.

What about the remaining binding at 10 µM (NEK9) of the same compound?
The remaining binding at 10 µM was 54%.

What about the remaining binding at 10 µM (PDPK1) of the same compound?
Its remaining binding at 10 µM is 100%.

What about the remaining binding at 10 µM (PKN1) of the same compound?
Its remaining binding at 10 µM is 82%.

And the remaining binding at 10 µM (PLK1)?
Its remaining binding at 10 µM is 35%.

What about the remaining binding at 10 µM (SGK2) of the same compound?
Its remaining binding at 10 µM is 78%.

And the IC50 ([1]; STF3A, read-out: IC50, inhibition of the Wnt/β-catenin signaling)?
The IC50 was less than 0.1 µM.

What about the IC50 (MV4-11) of the same compound?
Its IC50 is 0.079 nM.

What about the IC50 (MV4-11; read-out: Cell viability IC50) of the same compound?
Its IC50 is 0.079 nM.

And the IC50 (HL-60)?
The IC50 was 8.9 µM.

What about the IC50 (Jurkat) of the same compound?
The IC50 was 4.3 µM.

And the IC50 (U266)?
Its IC50 is greater than 10 µM.

What about the IC50 (Raji) of the same compound?
Its IC50 is 7.9 µM.

What about the IC50 (Karpas-299) of the same compound?
The IC50 was 7 µM.

What about the IC50 (A549) of the same compound?
Its IC50 is 6.4 µM.

What about the IC50 (SMMC7721) of the same compound?
The IC50 was greater than 10 µM.

What about the IC50 (BEL7402) of the same compound?
Its IC50 is greater than 10 µM.

What about the IC50 (HeLa) of the same compound?
The IC50 was 9.45 µM.

What about the IC50 (MCF-7) of the same compound?
Its IC50 is greater than 10 µM.
